Data taken from patent publication US20200360349A1, “ADMINISTRATION OF MONOBACTAM FOR THE TREATMENT OF URINARY TRACT INFECTION” (Novartis AG, priority 2017, published 2020).

Key:
[1] = Safety and tolerability of single doses of LYS228; assay type: in vivo, human; conditions: following single doses up to 6000 mg
Excerpt: and including any ionic species thereof is a compound with antibacterial activity (See PCT Application No. PCT/US2015/022011, which is incorporated herein by reference). […] LYS228 kills bacteria by inhibiting cell wall synthesis through covalent modification of the active site serine of penicillin binding protein 3 (PBP3). Aztreonam is the only monobactam approved for clinical use (Tunkel and Scheld Infect Control Hosp Epidemiol p. 486-94, 1990). MBL-expressing Enterobacteriaceae can inactivate all classes of (3-lactam drugs, except monocyclic (3-lactams like the monobactams. MBLs are frequently co-expressed with SBLs. The prevalence of strains expressing the New Delhi metal-β-lactamase-1 (NDM-1) is as high as 12% in clinical isolates from patients with invasive infections in India (Biedenbach et al Antimicrob. Agents Chemother. p. 826-30, 2015, Rahman et al India. Int. J. Antimicrob. Agents p. 30-7, 2014); infections caused by strains expressing NDM-1 and other MBLs have been detected globally, including in Europe, the United States, China, and Japan (Kazmierczak et al Antimicrob. Agents Chemother. p. 1067-78, 2016). […]

[2] = tested on: Gram-negative bacteria, including strains that show resistance to other monobactams; conditions: cited from earlier work

Nc1nc(/C(=N/OC2(C(=O)O)CC2)C(=O)N[C@@H]2C(=O)N(S(=O)(=O)O)[C@@H]2CN2CCOC2=O)cs1 [LYS228, 1-(((Z)-(1-(2-aminothiazol-4-yl)-2-oxo-2-(((3S,4R)-2-oxo-4-((2-oxooxazolidin-3-yl)methyl)-1-sulfoazetidin-3-yl)amino)ethylidene)amino)oxy)cyclopropanecarboxylic acid]
safety and tolerability [1]: safe and well-tolerated
activity against Gram-negative bacteria [2]: strong activity
